pIC50: −log10 of the molar value. Like-named read-outs stand apart in the source and are kept apart here.
Columns and labels:
[1] = Artificial membrane permeability assay (PAMPA)
[2] = Retention of docetaxel SDC-TRAPs in plasma and tumor (Example 53); type: in vivo, Female SCID Mouse (H1975); conditions: DRD
Protocol: Blood samples (˜300 μL) were collected by cardiac puncture and immediately centrifuged at 6000 rpm for 8 minutes at approximately 4° C. Resulting plasma samples (˜150 μL) were stored at −80° C. until analysis.
Following sacrifice, tumors were immediately dissected on ice, flash frozen in liquid N2, and stored at −80° C. until analysis.
To 55 μL of plasma samples, 200 μL of methanol containing 150-250 ng/mL internal standard(s) was added. Samples were vortex mixed for approximately 1.5 minutes at ambient temperature and then centrifuged at 4400 rpm for 10 mm at approximately 4° C. The resulting supernatants (175 μL) were transferred to a 96-well plate and dried under nitrogen at 40° C. Dried samples were reconstituted with 100 μL 50/50 (v/v) water/methanol, vortex mixed and 10 μL were injected into LC-MS/MS.
Tumor samples were weighed and homogenized in 5 volume of ice-cold phosphate buffered saline on ice using a hand-held homogenizer. To 55 μL of tumor homogenate samples, 200 μL of methanol containing 150-250 ng/mL internal standard(s) was added. Samples were vortex mixed for approximately 1.5 minutes at ambient temperature and then centrifuged at 4400 rpm for 10 min at approximately 4° C. The resulting supernatants (175 μL) were transferred to a 96-well plate and dried under nitrogen at 40° C. Dried samples were reconstituted with 100 μL 50/50 (v/v) water/methanol, vortex mixed and 10 μL were injected into LC-MS/MS.
Plasma and tumor samples were analyzed by LC-MS/MS using an Agilent 1100 HPLC (Agilent Technologies, Santa Clara, Calif.) interfaced to an API 4000 tandem mass spectrometer (Applied Biosystems, Foster City, Calif.). […] The flow rate was 0.5 mL/min. […] Quantitation for each analyte was done by extrapolation from a standard curve ranging from 2.50 to 50000 nM with 1/x^2 weighting.
Blood samples (˜300 μL) were collected by cardiac puncture and immediately centrifuged at 6000 rpm for 8 minutes at approximately 4° C. Resulting plasma samples (˜150 μL) were transferred to Eppendorf tubes containing approximately 5-10 mg of NaF, vortex mixed, and stored at −80° C. until analysis.
Following sacrifice tumors were immediately dissected on ice, flash frozen in liquid N2, and stored at −80° C. until analysis.
To 60 μL of plasma samples, 25 μL of 75/25 (v/v) water/acetonitrile containing 100 ng/mL internal standard(s) and 200 μL of acetonitrile were added. Samples were vortex mixed for approximately 2 minutes at ambient temperature and then centrifuged at 4400 rpm for 10 min at approximately 4° C. The resulting supernatants (300 μL) were transferred to a 96-well plate and dried under nitrogen at 40° C. Dried samples were reconstituted with 500 μL 60/40 (v/v) water/acetonitrile, vortex mixed and 10 μL were injected into LC-MS/MS.
Tumor samples were weighed and homogenized in 3 volume of ice-cold phosphate buffered saline on ice using a hand-held homogenizer. To 60 μL of tumor homogenate samples, 25 μL of 75/25 (v/v) water/acetonitrile containing 100 ng/mL internal standard(s) and 200 μL of acetonitrile were added. […] The resulting supernatants (200 μL) were transferred to a 96-well plate and dried under nitrogen at 40° C. Dried samples were reconstituted with 600 μL 60/40 (v/v) water/acetonitrile, vortex mixed and 10 μL were injected into LC-MS/MS.
Plasma and tumor samples were analyzed by LC-MS/MS using an Agilent 1100 HPLC (Agilent Technologies, Santa Clara, Calif.) interfaced to an API 4000 tandem mass spectrometer (Applied Biosystems, Foster City, Calif.). The separation of analytes were performed on a Symmetry Shield Sum C18 (2.1×100 mm; 100 Å) column (Waters, Milford, Mass.) with a run time of 5.0 mm per sample using the mobile phase consisted of 0.1% formic acid (A) and acetonitrile containing 0.1% formic acid (B). […] Quantitation for each analyte was done by extrapolation from a standard curve ranging from 1.00 to 25000 ng/mL with 1/x^2 weighting.

HER2 = HER2 degradation assay with BT-474 cell line (Example 12, FACS); type: cell-based, human
[3] = Tissue Distribution Data for SDC-TRAP-0154
[4] = of analyte at 48 h, dosed SDC-TRAP-0426 25 mg/10 mL/kg IV, Table 4
[5] = of analyte at 24 h, dosed SDC-TRAP-0427 25 mg/10 mL/kg IV, Table 4
[6] = of analyte at 48 h, dosed SDC-TRAP-0427 25 mg/10 mL/kg IV, Table 4
[7] = of analyte at 72 h, dosed SDC-TRAP-0427 25 mg/10 mL/kg IV, Table 4
[8] = of analyte at 48 h, dosed SDC-TRAP-0428 25 mg/10 mL/kg IV, Table 4

SMILES: CC(C)c1cc(-c2nnc(O)n2-c2ccc(CN3CCN(C(=O)CCn4cc(F)c(=O)[nH]c4=O)CC3)cc2)c(O)cc1O [SDC-TRAP-0049, 1-(3-(4-(4-(3-(2,4-dihydroxy-5-isopropylphenyl)-5-hydroxy-4H-1,2,4-triazol-4-yl)benzyl)piperazin-1-yl)-3-oxopropyl)-5-fluoropyrimidine-2,4(1H,3H)-dione]
- Mass Retention ([1]; incubation 5 h, first table): 14.1%

SMILES: CC(C)c1cc(-c2nnc(C(=O)NCCCCCS(N)(=O)=O)n2-c2ccc(CN3CCOCC3)cc2)c(O)cc1O [SDC-TRAP-0232, 5-(2,4-dihydroxy-5-isopropylphenyl)-4-(4-(morpholinomethyl)phenyl)-N-(5-sulfamoylpentyl)-4H-1,2,4-triazole-3-carboxamide]
- Mass Retention ([1]; incubation 5 h, first table): 21.0%

SMILES: CC(=O)O[C@@]12CO[C@@H]1C[C@H](O)[C@@]1(C)C(=O)[C@H](O)C3=C(C)[C@@H](OC(=O)[C@H](O)[C@@H](NC(=O)OC(C)(C)C)c4ccccc4)C[C@@](O)([C@@H](OC(=O)c4ccccc4)[C@H]21)C3(C)C [Docetaxel, docetaxel, reference compound]
- Mass Retention ([1]; incubation 5 h, first table): 17.6%

SMILES: CC(C)c1cc(-c2nnc(O)n2-c2ccc3c(ccn3CCNC(=O)CCCC[C@@H]3SCC4NC(=O)NC43)c2)c(O)cc1O (stereo in doubt) [SDC-TRAP-0233, N-(2-(5-(3-(2,4-dihydroxy-5-isopropylphenyl)-5-hydroxy-4H-1,2,4-triazol-4-yl)-1H-indol-1-yl)ethyl)-5-((3aS,4S,6aR)-2-oxohexahydro-1H-thieno[3,4-d]imidazol-4-yl)pentanamide]
- Mass Retention ([1]; incubation 5 h, first table): 10.9%

SMILES: CC(=O)O[C@@]12CO[C@@H]1C[C@H](O)[C@@]1(C)C(=O)[C@H](O)C3=C(C)[C@@H](OC(=O)[C@H](OC(=O)CCC(=O)N4CCC(N5CCC(CCn6ccc7cc(-n8c(O)nnc8-c8cc(C(C)C)c(O)cc8O)ccc76)CC5)CC4)[C@@H](NC(=O)OC(C)(C)C)c4ccccc4)C[C@@](O)([C@@H](OC(=O)c4ccccc4)[C@H]21)C3(C)C [SDC-TRAP-0426]
- concentration at 6 h ([2]; female, SCID, mouse, in vivo, of analyte at 6 h, dosed SDC-TRAP-0426 25 mg/10 mL/kg IV, Table 4, read-out: Plasma Conc.): 31.1 nM
- concentration at 24 h ([2]; female, SCID, mouse, in vivo, of analyte at 24 h, dosed SDC-TRAP-0426 25 mg/10 mL/kg IV, Table 4, read-out: Plasma Conc.): 11.1 nM
- Tumor Conc. ([2]; of analyte at 6 h, dosed SDC-TRAP-0426 25 mg/10 mL/kg IV, Table 4): 0.375 nmol/g of tissue
- Tumor Conc. ([2]; of analyte at 24 h, dosed SDC-TRAP-0426 25 mg/10 mL/kg IV, Table 4): 0.256 nmol/g of tissue
- Plasma Conc. [2, 4]: BQL
- Tumor Conc. [2, 4]: 0.337 nmol/g of tissue

SMILES: CC(=O)O[C@@]12CO[C@@H]1C[C@H](O)[C@@]1(C)C(=O)[C@H](O)C3=C(C)[C@@H](OC(=O)[C@H](OC(=O)CCC(=O)NC4CCN(C(=O)C5CCN(Cc6ccc(-n7c(O)nnc7-c7cc(C(C)C)c(O)cc7O)cc6)CC5)CC4)[C@@H](NC(=O)OC(C)(C)C)c4ccccc4)C[C@@](O)([C@@H](OC(=O)c4ccccc4)[C@H]21)C3(C)C [SDC-TRAP-0427]
- concentration at 6 h ([2]; female, SCID, mouse, in vivo, of analyte at 6 h, dosed SDC-TRAP-0427 7 mg/10 mL/kg IV, Table 5, second optimized procedure, read-out: Plasma Conc.): 8390 nM
- concentration at 6 h ([2]; female, SCID, mouse, in vivo, of analyte at 6 h, dosed SDC-TRAP-0427 25 mg/10 mL/kg IV, Table 4, read-out: Plasma Conc.): 20900 nM
- concentration at 48 h ([2]; female, SCID, mouse, in vivo, of analyte at 48 h, dosed SDC-TRAP-0427 7 mg/10 mL/kg IV, Table 5, second optimized procedure, read-out: Plasma Conc.): 11.8 nM
- concentration at 72 h ([2]; female, SCID, mouse, in vivo, of analyte at 72 h, dosed SDC-TRAP-0427 7 mg/10 mL/kg IV, Table 5, second optimized procedure, read-out: Plasma Conc.): 10.1 nM
- Tumor Conc. ([2]; of analyte at 6 h, dosed SDC-TRAP-0427 7 mg/10 mL/kg IV, Table 5, second optimized procedure): 1.19 nmol/g of tissue
- Tumor Conc. ([2]; of analyte at 6 h, dosed SDC-TRAP-0427 25 mg/10 mL/kg IV, Table 4): 13.6 nmol/g of tissue
- Plasma Conc. [2, 5]: BQL
- Tumor Conc. [2, 5]: 14.6 nmol/g of tissue
- Tumor Conc. ([2]; of analyte at 48 h, dosed SDC-TRAP-0427 7 mg/10 mL/kg IV, Table 5, second optimized procedure): 0.458 nmol/g of tissue
- Plasma Conc. [2, 6]: BQL
- Tumor Conc. [2, 6]: 8.02 nmol/g of tissue
- Tumor Conc. ([2]; of analyte at 72 h, dosed SDC-TRAP-0427 7 mg/10 mL/kg IV, Table 5, second optimized procedure): 0.372 nmol/g of tissue
- Plasma Conc. [2, 7]: BQL
- Tumor Conc. [2, 7]: 7.18 nmol/g of tissue

SMILES: CCc1c2c(nc3ccc(OC(=O)N4CCC[C@H]4C(=O)N4CCC(CCn5ccc6cc(-n7c(O)nnc7-c7cc(C(C)C)c(O)cc7O)ccc65)CC4)cc13)-c1cc3c(c(=O)n1C2)COC(=O)[C@]3(O)CC [SDC-TRAP-0210]
- pIC50 (HER2): < 5.00
- Mass Retention ([1]; incubation 5 h, first table): 34.8%
- Mass Retention ([1]; same protocol, second table): 72.2%

SMILES: CC(C)c1cc(-c2nnc(O)n2-c2ccc3c(ccn3CCNC(=O)CCCCCNC(=O)CCCC[C@H]3SCC4NC(=O)NC43)c2)c(O)cc1O (stereo in doubt) [SDC-TRAP-0234, N-(2-(5-(3-(2,4-dihydroxy-5-isopropylphenyl)-5-hydroxy-4H-1,2,4-triazol-4-yl)-1H-indol-1-yl)ethyl)-6-(5-((3aR,4R,6aS)-2-oxohexahydro-1H-thieno[3,4-d]imidazol-4-yl)pentanamido)hexanamide]
- Mass Retention ([1]; incubation 5 h, first table): 9.56%

SMILES: Cn1c(=O)c2c(ncn2C)n(C)c1=O [Caffeine]
- Mass Retention ([1]; incubation 5 h, first table): 20.8%
- Mass Retention ([1]; same protocol, second table): −0.11%

SMILES: COc1cccc2c1C(=O)c1c(O)c3c(c(O)c1C2=O)C[C@@](O)(C(=O)CO)C[C@@H]3O[C@H]1C[C@H](N)[C@H](O)[C@H](C)O1 [Doxorubicin, doxorubicin, reference compound]
- Mass Retention ([1]; incubation 5 h, first table): 21.0%

SMILES: CCNC(=O)c1nnc(-c2cc(C(C)C)c(O)cc2O)n1-c1ccc(Oc2ccc(C(=O)N3CCC(C(=O)OC4(CC)C(=O)OCc5c4cc4n(c5=O)Cc5c-4nc4ccc(O)cc4c5CC)CC3)cc2)cc1 (stereo not shown) [SDC-TRAP-0154, 4,11-Diethyl-9-hydroxy-3,14-dioxo-3,4,12,14-tetrahydro-1H-pyrano[3′,4′:6,7]indolizino[1,2-b]quinolin-4-yl 1-(4-(4-(3-(2,4-dihydroxy-5-isopropylphenyl)-5-(ethylcarbamoyl)-4H-1,2,4-triazol-4-yl)phenoxy)benzoyl)piperidine-4-carboxylate]
- pIC50 (HER2): 6.72
- Plasma Conc. ([3]; Time (h) 0.083): 928000 nM
- Tumor Conc. ([3]; Time (h) 0.083): 11.8 nmol/g of tissue
- Tumor/Plasma Ratio ([3]; Time (h) 0.083): 0.01
- Plasma Conc. ([3]; Time (h) 1): 251000 nM
- Tumor Conc. ([3]; Time (h) 1): 14.1 nmol/g of tissue
- Tumor/Plasma Ratio ([3]; Time (h) 1): 0.06
- Plasma Conc. ([3]; Time (h) 6): 5080 nM
- Tumor Conc. ([3]; Time (h) 6): 9.46 nmol/g of tissue
- Tumor/Plasma Ratio ([3]; Time (h) 6): 1.86
- Plasma Conc. ([3]; Time (h) 24): 198 nM
- Tumor Conc. ([3]; Time (h) 24): 2.35 nmol/g of tissue
- Tumor/Plasma Ratio ([3]; Time (h) 24): 11.9
- Plasma Conc. ([3]; Time (h) 48): 21.8 nM
- Tumor Conc. ([3]; Time (h) 48): 1.88 nmol/g of tissue
- Tumor/Plasma Ratio ([3]; Time (h) 48): 86.0
- Mass Retention ([1]; same protocol, second table): 10.3%

SMILES: CC(=O)O[C@@]12CO[C@@H]1C[C@H](O)[C@@]1(C)C(=O)[C@H](O)C3=C(C)[C@@H](OC(=O)[C@H](OC(=O)C4CCN(C(=O)C5CCN(Cc6ccc(-n7c(O)nnc7-c7cc(C(C)C)c(O)cc7O)cc6)CC5)CC4)[C@@H](NC(=O)OC(C)(C)C)c4ccccc4)C[C@@](O)([C@@H](OC(=O)c4ccccc4)[C@H]21)C3(C)C [SDC-TRAP-0428]
- Tumor Conc. ([2]; of analyte at 6 h, dosed SDC-TRAP-0428 25 mg/10 mL/kg IV, Table 4): 5.27 nmol/g of tissue
- Tumor Conc. ([2]; of analyte at 24 h, dosed SDC-TRAP-0428 25 mg/10 mL/kg IV, Table 4): 3.89 nmol/g of tissue
- Plasma Conc. [2, 8]: BQL
- Tumor Conc. [2, 8]: 3.40 nmol/g of tissue
- Tumor Conc. ([2]; of analyte at 72 h, dosed SDC-TRAP-0428 25 mg/10 mL/kg IV, Table 4): 1.20 nmol/g of tissue

SMILES: CCNC(=O)c1nnc(-c2cc(C(C)C)c(O)cc2O)n1-c1ccc(CN2CCC(C(=O)N[C@@H](CC(C)C)C(=O)Nc3cccc4c3CN(C3CCC(=O)NC3=O)C4=O)CC2)cc1 (stereo partly drawn) [SDC-TRAP-0193, 1-(4-(3-(2,4-dihydroxy-5-isopropylphenyl)-5-(ethylcarbamoyl)-4H-1,2,4-triazol-4-yl)benzyl)-N-((2S)-1-((2-(2,6-dioxopiperidin-3-yl)-1-oxoisoindolin-4-yl)amino)-4-methyl-1-oxopentan-2-yl)piperidine-4-carboxamide]
- Mass Retention ([1]; incubation 5 h, first table): 10.2%

SMILES: CC(C)c1cc(-c2nnc(O)n2-c2ccc3c(ccn3CCOCCNC(=O)CCn3cc(F)c(=O)[nH]c3=O)c2)c(O)cc1O [SDC-TRAP-0048, N-(2-(2-(5-(3-(2,4-dihydroxy-5-isopropylphenyl)-5-hydroxy-4H-1,2,4-triazol-4-yl)-1H-indol-1-yl)ethoxy)ethyl)-3-(5-fluoro-2,4-dioxo-3,4-dihydropyrimidin-1(2H)-yl)propanamide]
- Mass Retention ([1]; incubation 5 h, first table): 10.8%
